Laboratory results from ChEMBL document CHEMBL3132826, “Investigation of a tetrahydroisoquinoline scaffold as dual-action steroid sulfatase inhibitors generated by parallel solid-phase synthesis” (Medchemcomm, 2013).

What was measured:
[1] = target: T1, Steryl-sulfatase (Homo sapiens) (UniProt P08842); assay: Inhibition of STS (unknown origin) expressed in HEK-293 cells assessed as transformation of [3H]-E1S into E1 at 0.1 uM by […]; type: cell-based; settings: HEK293
T1 sequence (whole entry): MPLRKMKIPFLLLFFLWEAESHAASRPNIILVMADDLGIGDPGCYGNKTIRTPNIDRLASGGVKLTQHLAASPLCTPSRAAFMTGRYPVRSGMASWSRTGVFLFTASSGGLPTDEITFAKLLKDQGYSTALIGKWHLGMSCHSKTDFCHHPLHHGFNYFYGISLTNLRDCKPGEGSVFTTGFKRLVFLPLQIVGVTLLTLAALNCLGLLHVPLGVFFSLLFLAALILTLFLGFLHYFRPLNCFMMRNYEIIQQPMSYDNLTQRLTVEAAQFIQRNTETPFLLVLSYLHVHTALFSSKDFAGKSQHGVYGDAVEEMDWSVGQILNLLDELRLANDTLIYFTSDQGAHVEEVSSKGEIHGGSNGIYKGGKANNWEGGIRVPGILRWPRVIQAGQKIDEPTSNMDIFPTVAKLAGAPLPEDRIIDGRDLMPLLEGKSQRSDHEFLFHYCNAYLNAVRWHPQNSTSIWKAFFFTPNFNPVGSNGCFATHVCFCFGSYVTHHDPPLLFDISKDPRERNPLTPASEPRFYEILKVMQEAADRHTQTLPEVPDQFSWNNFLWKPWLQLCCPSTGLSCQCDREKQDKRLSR

[2] = Lipophilicity, log P of the compound; type: physicochemical; settings: octanol/water
[3] = target: T1, Steryl-sulfatase (Homo sapiens); assay: Inhibition of STS (unknown origin) expressed in HEK-293 cells assessed as transformation of [3H]-E1S into E1 at 1 uM by […]; type: cell-based; settings: HEK293
[4] = Estrogenic activity in human Saos2 cells assessed as cell proliferation at 1 uM; type: ADME, cell-based; settings: saos-2, 1 µM
[5] = Estrogenic activity in human Saos2 cells assessed as increase in alkaline phosphatase activity at 1 nM; type: ADME, cell-based; settings: saos-2, 0.001 µM
MCF7 [6] = assay: Estrogenic activity in human MCF7 cells assessed as cell proliferation at 0.1 nM by MTS assay relative to basal level; type: ADME, cell-based; settings: mcf7, 0.0001 µM
MCF7 [7] = assay: Estrogenic activity in human MCF7 cells assessed as cell proliferation at 0.1 uM by MTS assay relative to basal level; type: ADME, cell-based; settings: mcf7, 0.1 µM
MCF7 [8] = assay: Estrogenic activity in human MCF7 cells assessed as cell proliferation at 1 uM by MTS assay relative to basal level; type: ADME, cell-based; settings: mcf7, 1 µM
MCF7 [9] = assay: Estrogenic activity in human MCF7 cells assessed as cell proliferation at 0.01 uM by MTS assay relative to basal level; type: ADME, cell-based; settings: mcf7, 0.01 µM

Structure (SMILES) | inhibition [1] [%] | logP [2] | inhibition [3] [%] | Activity [5] [%] | Activity [4] | Activity (MCF7 [6]) [%] | Activity (MCF7 [7]) [%] | Activity (MCF7 [8]) [%] | Activity (MCF7 [9]) [%]
NS(=O)(=O)Oc1ccc2c(c1)CN(C(=O)c1ccc(N3CCC(Cc4ccccc4)CC3)cc1)CC2 | 41.4 | 3.87 | 81.3 | – | – | – | – | – | –
C[C@]12CC[C@@H]3c4ccc(O)cc4CC[C@H]3[C@@H]1CC[C@@H]2O [ESTRADIOL] | – | – | – | 148 | 144% | 75.6 | – | – | –
CCN(Cc1ccccc1)c1ccc(C(=O)N2CCc3ccc(OS(N)(=O)=O)cc3C2)cc1 | 66.9 | 3.08 | 83.6 | – | – | – | – | – | –

Now from value to molecule, other results behind:

inhibition [1] [%] | logP [2] | inhibition [3] [%] | Activity [5] [%] | Structure (SMILES) | Activity [4] | Activity (MCF7 [6]) [%] | Activity (MCF7 [7]) [%] | Activity (MCF7 [8]) [%] | Activity (MCF7 [9]) [%]
36.6 | 3.07 | 84.7 | – | CCCN(CCC)c1ccc(C(=O)N2CCc3ccc(OS(N)(=O)=O)cc3C2)cc1 | – | – | – | – | –
– | – | – | 133 | CC(C)CCN(CCC(C)C)c1ccc(C(=O)N2CCc3ccc(O)cc3C2)cc1 | Toxic | – | 0 | 0 | 0
– | – | – | 133 | O=C(c1ccc(N(Cc2ccccc2)Cc2ccco2)cc1)N1CCc2ccc(O)cc2C1 | Toxic | – | 0 | 7.7 | 0
